Measurements reported in article PMC3705412, “PTP1B Inhibitory and Anti-Inflammatory Effects of Secondary Metabolites Isolated from the Marine-Derived Fungus Penicillium sp. JF-55” (Marine Drugs, 2013).

Tests used:
[1] = target: T1, PTP1B (human, recombinant) (Homo sapiens, UniProt P18031); assay: PTP1B assay (pNPP hydrolysis); format: biochemical
T1 construct: purchased BIOMOL Research Laboratories, Inc
T1 sequence (P18031 1-435): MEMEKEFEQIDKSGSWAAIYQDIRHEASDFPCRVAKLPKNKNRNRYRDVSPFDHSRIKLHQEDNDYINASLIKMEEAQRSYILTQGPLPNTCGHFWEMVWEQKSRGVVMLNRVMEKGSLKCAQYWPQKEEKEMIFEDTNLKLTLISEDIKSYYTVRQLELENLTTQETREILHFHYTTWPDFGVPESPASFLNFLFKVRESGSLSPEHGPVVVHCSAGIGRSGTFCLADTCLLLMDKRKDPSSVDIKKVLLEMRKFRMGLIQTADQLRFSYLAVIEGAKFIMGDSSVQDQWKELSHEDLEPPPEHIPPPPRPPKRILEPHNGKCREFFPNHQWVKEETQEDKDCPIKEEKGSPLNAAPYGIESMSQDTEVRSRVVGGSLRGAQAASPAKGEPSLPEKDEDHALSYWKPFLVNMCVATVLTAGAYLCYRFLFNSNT
Experimental: PTP1B (human, recombinant) was purchased from BIOMOL Research Laboratories, Inc. Enzyme activity was measured in a reaction mixture containing 2 mM p-nitrophenyl phosphate (pNPP) in 50 mM citrate, pH 6.0 (composition: 0.1 M NaCl, 1 mM EDTA, and 1 mM dithiothreitol (DTT)). The reaction mixture was placed in an incubator maintained at 30 °C for 30 min, and the reaction was terminated by the addition of 1 N NaOH. The amount of p-nitrophenol produced was estimated by measuring the increase in absorbance at 405 nm. The nonenzymatic hydrolysis of 2 mM pNPP was corrected by measuring the increase in absorbance at 405 nm in the absence of PTP1B enzyme. For the kinetic analysis, the reaction mixture consisted of different concentrations of pNPP as a PTP1B substrate in the absence or presence of compound 1, and assays were performed as described above. The Michaelis-Menten constant (Km) and maximum velocity (Vmax) of PTP1B were determined by the Lineweaver-Burk plot using a GraphPad Prism® 4 program (GraphPad Software Inc., San Diego, CA, USA).

[2] = system: TNF-α production in murine peritoneal macrophages; assay: TNF-α production in LPS-stimulated macrophages, ELISA; format: cell-based, murine (C57BL/6 mice); conditions: Mus musculus, Peritoneal macrophage; pre-treated 12 h, LPS 1 μg/mL 18 h
Experimental: C57BL/6 mice were purchased from Orient Bio Co. (Sungnam, Kyung-Kido, Korea). TG-elicited peritoneal macrophages were harvested four days after intraperitoneal (i.p.) injection of 3 mL of TG [37]. Peritoneal lavage was performed using 8 mL of Hanks’ Balanced Salt Solution containing 10 U/mL heparin. The cells were distributed in Roswell Park Memorial Institute medium (RPMI) supplemented with 10% heat-inactivated FBS, in 6-well tissue culture plates (5 × 10^6 cells/mL). The level of PGE2, TNF-α or IL-1β present in each sample was determined using a commercially available kit from R & D Systems. The assay was performed according to the manufacturer’s instructions. Briefly, murine peritoneal macrophages were cultured in 24-well plates, pre-incubated for 12 h with different concentrations of compounds 1–3, and then stimulated for 18 h with LPS. The cell culture supernatants were then immediately collected after treatment and centrifuged at 13,000× g for 2 min to remove particulate matter. The medium was added to a 96-well plate pre-coated with affinity-purified PGE2-specific polyclonal antibodies or the medium was added to a 96-well plate pre-coated with affinity-purified polyclonal antibodies that were specific to mouse TNF-α or IL-1β. An enzyme-linked polyclonal antibody specific for PGE2, mouse TNF-α or IL-1β was added to the wells for 20 h, followed by a final wash to remove any unbound antibody-enzyme reagent. A substrate solution was added, and the intensity of the color produced, which was measured at 450 nm (the correction wavelength was set at 540 nm or 570 nm), was proportional to the amount of PGE2, TNF-α or IL-1β present.

COX-2 = assay: Western blotting of COX-2 protein expression in LPS-stimulated macrophages; format: cell-based, murine (C57BL/6 mice); conditions: pre-treatment 12 h, LPS 1 μg/mL 18 h
Experimental: Figure 3 The effects of penstyrylpyrone (1) (A), anhydrofulvic acid (2) (B), and citromycetin (3) (C) on the protein expression of iNOS and COX-2 in murine peritoneal macrophages stimulated with LPS. Murine peritoneal macrophages were pre-treated for 12 h at the indicated compound concentrations and stimulated for 18 h with LPS (1 μg/mL). Western blotting analysis was performed, and the representative blots of three independent experiments are shown.
C57BL/6 mice were purchased from Orient Bio Co. (Sungnam, Kyung-Kido, Korea). TG-elicited peritoneal macrophages were harvested four days after intraperitoneal (i.p.) injection of 3 mL of TG [37]. Peritoneal lavage was performed using 8 mL of Hanks’ Balanced Salt Solution containing 10 U/mL heparin. The cells were distributed in Roswell Park Memorial Institute medium (RPMI) supplemented with 10% heat-inactivated FBS, in 6-well tissue culture plates (5 × 10^6 cells/mL).
Western blotting analysis was performed by lysing the cells in 20 mM Tris-HCl buffer (pH 7.4) containing a protease inhibitor mixture (0.1 mM PMSF, 5 mg/mL aprotinin, 5 mg/mL pepstatin A, and 1 mg/mL chymostatin). The protein concentration was determined using a Lowry protein assay kit (P5626; Sigma Chemical Co., St. Louis, MO, USA). […]

IC50 ([1]; 2 mM pNPP, pH 6.0, 30 °C, 30 min, read-out: PTP1B inhibitory activity IC50): 5.28 µM | Mode of PTP1B inhibition (Lineweaver-Burk, non-linear regression) ([1]; different concentrations of pNPP): competitive | IC50 [2]: 18.3 µM
Structure (SMILES): COc1cc(/C=C/c2ccccc2)oc(=O)c1C [Penstyrylpyrone (1), penstyrylpyrone]
COX-2 expression (COX-2): decreased
